Several values for one entry are separate records, joined by “and”; a condition that tells them apart may be missing. Identical values can stand only once. Like-named read-outs stand apart in the source and are kept apart here.
Tests used:
rats [1] = test: Formalin test, rat; format: in vivo
Experimental: (§1) The animals received an intraplantar injection of a 2.5% formalin solution (50 µl rat, 25 µl mouse) into a hind paw. The time spent biting and licking of the injected paw was monitored during the two typical phases of the nociceptive response (phase I: 0–5 min; phase II: 20–40 min in rats or 15–40 min in mice).

rats [2] = test: Paw pressure test, rat
Experimental: The behavioural tests were performed in a quiet room and evaluated by a single investigator in a blinded manner. Treatments and/or genotypes were randomized in blocks and the number of animals in each block corresponded to the number of treatments and/or genotypes compared. […] Each animal was exposed to only one treatment.
The rats were submitted to the paw pressure test, using an Ugo Basile analgesy meter with a probe tip diameter of 1 mm (Bioseb, France). Nociceptive thresholds, expressed in grams (g), were measured by applying an increasing pressure to the right hind paw until a squeak (vocalization thresholds) was obtained (cut-off 750 g). Two consecutive stable vocalisation threshold values were first obtained (baseline).
Intrathecal injections were performed on anaesthetised rats held in one hand by the pelvic girdle. A 25 gauge 1 inch needle connected to a 25 µl Hamilton syringe was then inserted into the subarachnoidal space between lumbar vertebrae L5 and L6 until a tail flick was elicited. The syringe was held in position for few seconds after the injection of a volume of 10 µl [49]. All injections were performed under isoflurane anaesthesia (4% induction, 2% maintenance).

[3] = format: in vivo, rat
Experimental: […] The brain was removed from the skull and blood was collected in test tubes, containing 60 µl buffered citrate, and the tissues snap frozen in liquid nitrogen before storage at −70°C.
(§2) The whole brain was homogenized in ice-cold 10 mM Tris buffer (ml/g tissue) at pH 7.6. The buffer solution contained 1 mM EDTA, 0.3 mM ascorbic acid and 10 µM methylarachidonylfluorophosphonate (MAFP) to prevent degradation of AM404, arvanil, olvanil, anandamide and 2-arachidonoylglycerol. Aliquots (200 µl) of blood and homogenates were precipitated with 1 ml ice-cold acetone, containing AM404-D4 (5 nM) or anandamide-D8 (100 nM) as internal standard. After centrifugation at 25,200 g for 30 min at 4°C, the supernatants were collected in polypropylene tubes and vacuum evaporated. The protein content of the pellet was determined with Coomassie protein assay (Pierce; Illinois, USA), using bovine serum albumin as standard. […] Samples were analyzed on a Waters Aquity UPLC system coupled to a Sciex 5500 tandem mass spectrometer (LC-MS/MS; AB Sciex; Massachusetts, USA) or a Perkin Elmer 200 HPLC system coupled to an API 3000 tandem mass spectrometer (LC-MS-MS; Applied Biosystems/MDS-SCIEX).
Quantification of AM404, HPODA, arvanil and olvanil. Samples were analyzed on a Waters Aquity UPLC system coupled to a Sciex 5500 tandem mass spectrometer. […]

TRPV1 = molecular target: T1, TRPV1 (Rattus norvegicus, UniProt O35433); test: TRPV1 activation assessed as nerve-mediated vasorelaxation in rat isolated mesenteric arteries; format: cell-based; settings: for times more potent than AM404 as TRPV1 activator / times more potent than HPODA as TRPV1 activator: vasorelaxation readout
T1 construct: rat mesenteric arterial segments precontracted with phenylephrine; from tissue; host or cells: rat isolated mesenteric arterial segments (Sprague-Dawley rats)
T1 sequence (O35433 whole entry): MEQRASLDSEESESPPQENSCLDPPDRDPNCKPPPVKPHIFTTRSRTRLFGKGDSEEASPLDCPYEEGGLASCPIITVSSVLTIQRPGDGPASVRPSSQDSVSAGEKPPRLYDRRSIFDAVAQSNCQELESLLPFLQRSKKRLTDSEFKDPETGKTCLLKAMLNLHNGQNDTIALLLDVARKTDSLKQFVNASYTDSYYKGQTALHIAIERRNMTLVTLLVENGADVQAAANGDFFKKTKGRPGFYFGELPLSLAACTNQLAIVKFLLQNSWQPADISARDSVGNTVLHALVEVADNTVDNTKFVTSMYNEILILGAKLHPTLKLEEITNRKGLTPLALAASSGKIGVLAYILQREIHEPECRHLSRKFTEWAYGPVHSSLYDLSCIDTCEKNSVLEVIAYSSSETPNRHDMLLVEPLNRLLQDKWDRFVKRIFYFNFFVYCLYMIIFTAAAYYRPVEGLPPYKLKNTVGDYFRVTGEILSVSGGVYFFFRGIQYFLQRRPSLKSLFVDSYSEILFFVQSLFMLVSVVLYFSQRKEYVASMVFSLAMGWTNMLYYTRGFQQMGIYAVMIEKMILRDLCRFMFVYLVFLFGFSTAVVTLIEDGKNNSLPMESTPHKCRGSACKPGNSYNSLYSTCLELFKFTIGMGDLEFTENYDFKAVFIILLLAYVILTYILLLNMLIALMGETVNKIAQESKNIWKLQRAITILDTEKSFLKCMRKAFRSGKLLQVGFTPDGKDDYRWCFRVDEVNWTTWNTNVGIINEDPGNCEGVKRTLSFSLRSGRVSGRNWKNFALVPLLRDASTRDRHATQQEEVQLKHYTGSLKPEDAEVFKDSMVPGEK
Experimental: TRPV1 activation was assessed indirectly on rat isolated mesenteric arteries, using nerve-mediated vasorelaxation as readout. Briefly, arterial segments (2 mm long) were suspended between two stainless steel wires in temperature-controlled tissue baths (37°C), containing aerated (95% O2 and 5% CO2) physiological salt solution (composition in mM: NaCl 119, KCl 4.6, CaCl2 1.5, MgCl2 1.2, NaHCO3 15, NaH2PO4 1.2 and D-glucose 6; pH 7.4), under a passive load of 2 mN. One of the wires was connected to a force-displacement transducer model FT03 C (Grass Instruments; Rhode Island, USA) for isometric tension recording. Vasorelaxation was studied in arterial segments submaximally contracted with phenylephrine. Increasing concentrations of AM404, arvanil, olvanil and HPODA in the absence and presence of capsazepine (3 µM) were then added cumulatively to determine concentration-response relationships. All experiments were performed in the presence of indomethacin (10 µM) and N^ω-nitro-L-arginine (300 µM) to reduce cyclooxygenase and nitric oxide synthase activity, respectively.
Data are presented as the mean ± SEM, and n indicates the number of animal tested in each group. pEC50 of the lipid metabolites indicates the negative log concentration that elicited half-maximal vasorelaxation. Mann-Whitney U test or Student’s t-test was used when two groups were compared. When multiple groups were compared, Kruskal-Wallis one-way ANOVA followed by Dunn’s multiple comparisons test was used. Data from the paw pressure test were analyzed by repeated measures two-way ANOVA followed by Sidak’s or Dunnett’s multiple comparisons test. The level of statistical significance was set at p<0.05. GraphPad Prism 6.0 software (California, USA) was used in all calculations and statistical analyses.

[4] = Contents of amines and lipid metabolites in blood and brain after i.p. injection in mice (LC-MS/MS); format: in vivo, mouse
Experimental: Twenty min after drug administration, the animals were anesthetized by CO2 (rats) or isoflurane (mice) inhalation and decapitated. The brain was removed from the skull and blood was collected in test tubes, containing 60 µl buffered citrate, and the tissues snap frozen in liquid nitrogen before storage at −70°C.
as §2
Quantification of AM404, HPODA, arvanil and olvanil. Samples were analyzed on a Waters Aquity UPLC system coupled to a Sciex 5500 tandem mass spectrometer. Sample aliquots of 5 µl were injected into an Acquity UPLC BEH C18 column (100 × 2 mm, 1.7 µm; Waters) held at 50°C. All mobile phases were water-acetonitrile gradients, containing 0.1% formic acid and using a flow rate of 400 µl/min. The acetonitrile content was initially 30%, then increased linearly to 100% over 7 min and kept at this level for 4 min, followed by an equilibration period at 30% for 2 min. The electrospray interface was operating in the positive ion mode at 550°C and the ion spray voltage was set to 5000 volts. The mass transitions (m/z) used were the following: 396.2/110.1 for AM404, 374.2/110.0 for HPODA, 400.2/114.0 for AM404-D4, 440.3/137.1 for arvanil and 418.3/137.1 for olvanil. The declustering potentials were between 96 and 130 volts and the collision energies between 25 and 41 volts.
Quantification of 4-aminophenol and HMBA. Sample aliquots of 5 µl were injected into a Hypercarb column (50 × 2.1 mm; Thermo). All mobile phases were water-acetonitrile gradients, containing 0.1% formic acid. The acetonitrile content was initially 2%, then increased linearly to […] over 5 min and then kept at 100% for 1 min, followed by an equilibration period at 2% for 1.5 min. The electrospray ion source was set at 550°C and used in the positive ion mode with an ion spray voltage of 5000. […] HMBA loses the amino group already in the source of the MS and therefore the mass transition used was 137.0/94.0. The declustering potentials were 100 and 90 volts and the collision energies 21 and 29 volts. No internal standard was used for these analyses.
The contents of the compounds were expressed either in moles or as normalized peak areas (nPA) and related to the protein content in the samples. The nPA was obtained by dividing the peak area of the analyte with the peak area for the internal standard in the same sample. The detection limits were calculated as the concentrations corresponding to three times the standard deviation of the blanks. When levels were below detection limit, numerical values of half the detection limit were used in the calculations.

rat orthologue of TRPV1 = system: rat orthologue of TRPV1; set-up: method as in PMID 11159715; settings: 45Ca2+ uptake assay, CHO cells expressing rat TRPV1; cited from earlier work
human TRPV1 = system: human TRPV1; set-up: method as in PMID 11033355; settings: HEK293 cells expressing human TRPV1, fluorometric calcium imaging; cited from earlier work
mice = test: Formalin test, mouse; format: in vivo; settings: mice
Experimental: as §1

[5] = system: patients with postoperative pain; set-up: method as in PMID 18843665; settings: single oral dose of 1000 mg; cited from earlier work
[6] = system: spinal serotonergic pathways; test: Spinal serotonin content after lesion of descending serotonergic pathways; format: in vivo; settings: 5,7-DHT 100 µg/rat intrathecal, 7 days; control 529±34
[7] = AM251 3 mg/kg i.p., 4-aminophenol 100 mg i.p.
[8] = PMSF 10 mg/kg s.c., 4-aminophenol 100 mg/kg i.p.
[9] = 20 min after HMBA 300 mg/kg i.p., mouse
[10] = 20 min after i.p. 4-aminophenol (30 and 100 mg/kg) or HMBA (300 mg/kg)
[11] = capsazepine 10 mg/kg i.p., 4-aminophenol 100 mg/kg

Cc1c(C(=O)NN2CCCCC2)nn(-c2ccc(Cl)cc2Cl)c1-c1ccc(I)cc1 [AM251, N-(piperidin-1-yl)-5-(4-iodophenyl)-1-(2,4-dichlorophenyl)-4-methyl-1H-pyrazole-3-carboxamide]
effect on antinociceptive effect of 4-aminophenol, rat formalin test (rats [1]; [7]): prevented the antinociceptive effect | effect on antinociceptive effect of 4-aminophenol, rat paw pressure test (rats [2]; [7]): prevented the antinociceptive effect

O=S(=O)(F)Cc1ccccc1 [PMSF, phenylmethylsulfonyl fluoride]
effect on formation of AM404 in rat brain ([3]; PMSF 10 mg/kg s.c. pretreatment, 20 min after 4-aminophenol 100 mg/kg i.p.): substantially reduced the formation of AM404 | effect on antinociceptive effect of 4-aminophenol, rat formalin test (rats [1]; [8]): inhibited the antinociceptive effect | effect on antinociceptive effect of 4-aminophenol, rat paw pressure test (rats [2]; [8]): inhibited the antinociceptive effect

CCCCC/C=C\C/C=C\C/C=C\C/C=C\CCCC(=O)NCc1ccc(O)c(OC)c1 [arvanil, N-(4-hydroxy-3-methoxybenzyl)-5Z,8Z,11Z,14Z-eicosatetraenamide]
EC50 (TRPV1): 0.2 nM | times more potent than AM404 as TRPV1 activator (TRPV1): > 100 times and 172 times | times more potent than HPODA as TRPV1 activator (TRPV1): > 300 times | Brain Arvanil ([4]; 20 min after HMBA 100 mg/kg i.p., mouse): 3.33 pmol/g | Brain Arvanil ([4]; 20 min after HMBA 100 mg/kg i.p., mouse, listed as Arvanil): 3.33 ± 0.33 pmol/g | Brain Arvanil [4, 9]: 56 ± 10 pmol/g | brain content in FAAH−/− mice compared to FAAH+/+ littermates [4, 10]: substantially reduced | concentration at 20 min ([4]; in vivo, HMBA 100 mg/kg, mouse, read-out: brain content of arvanil): 3.33 pM | times more potent than AM404 (rat orthologue of TRPV1): 933 times | times more potent than AM404 (human TRPV1): approximately 50 times

CCCCC/C=C\C/C=C\C/C=C\C/C=C\CCCC(=O)Nc1ccc(O)cc1 [AM404, N-(4-Hydroxyphenyl)-5Z,8Z,11Z,14Z-eicosatetraenamide]
EC50 (TRPV1): 31.6 nM | times more potent than HPODA as TRPV1 activator (TRPV1): 3.3 times | Brain AM404 ([4]; 20 min after 4-AP 30 mg/kg i.p., mouse): 411 pmol/g and 411 ± 134 pmol/g | Brain AM404 ([4]; 20 min after 4-AP 100 mg/kg i.p., mouse): 4829 ± 1435 pmol/g | brain content in FAAH−/− mice compared to FAAH+/+ littermates [4, 10]: substantially reduced | quotient between the brain contents of lipid metabolite and its parent amine ([4]; mouse, in vivo): 1∶1,500 | content of AM404 in rat brain at different time points ([3]; 4-aminophenol 100 mg/kg i.p., 15 min and 30 min): Significant amounts

Cc1c(N(C)CS(=O)(=O)[O-])c(=O)n(-c2ccccc2)n1C.[Na+] [dipyrone]
antinociception in formalin test (mice; dipyrone 50 mg/kg i.p.): effective antinociceptive agent

CC(=O)Nc1ccc(O)cc1 [Paracetamol]
NNT (numbers needed to treat) for at least 50% pain reduction over 4–6 hours [5]: 3.6

Oc1cc2c(cc1O)CN(C(=S)NCCc1ccc(Cl)cc1)CCC2 [capsazepine, N-[2-(4-Chlorophenyl)ethyl]-1,3,4,5-tetrahydro-7,8-dihydroxy-2H-2-benzazepine-2-carbothioamide]
effect on vasorelaxation evoked by arvanil, olvanil and HPODA (TRPV1; capsazepine 3 µM): significantly suppressed the vasorelaxation | effect on antinociceptive effect of 4-aminophenol in formalin test (mice; capsazepine 100 nmol into lateral ventricle 5 min prior to 4-aminophenol 30 mg/kg i.p.): eliminated the antinociceptive effects | effect on antinociceptive effect of HMBA in formalin test (mice; capsazepine 100 nmol into lateral ventricle 5 min prior to HMBA 100 mg/kg i.p.): eliminated the antinociceptive effects | effect on antinociceptive effect of 4-aminophenol, rat formalin test (rats [1]; [11]): prevented the antinociceptive effect | effect on antinociceptive effect of 4-aminophenol, rat paw pressure test (rats [2]; [11]): prevented the antinociceptive effect

COc1ccccc1N1CCN(CCN(C(=O)C2CCCCC2)c2ccccn2)CC1.O=C(O)/C=C\C(=O)O [WAY-100635, N-[2-[4-(2-methoxyphenyl)-1-piperazinyl]ethyl]-N-2-pyridinylcyclohexane-carboxamide maleate]
effect on antinociceptive effect of 4-aminophenol, rat formalin test (rats [1]; WAY-100635 40 µg/rat intrathecal 5 min before 4-aminophenol 100 mg/kg i.p.): prevented

NCCc1c[nH]c2c(O)cc(O)cc12 [5,7-DHT, 5,7-dihydroxytryptamine]
spinal serotonin content [6]: 359±38 ng/g tissue wet weight | effect on antinociceptive effect of 4-aminophenol, rat paw pressure test (rats [2]; 5,7-DHT 100 µg/rat intrathecal, 7 days before test, 4-aminophenol 100 mg/kg i.p.): inhibited the antinociceptive effect

CCCCCCCC/C=C\CCCCCCCC(=O)Nc1ccc(O)cc1 [HPODA, N-(4-hydroxyphenyl)-9Z-octadecenamide]
EC50 (TRPV1; capsazepine-sensitive vasorelaxation, rat mesenteric arterial segments precontracted with phenylephrine, read-out: pEC50 (negative log concentration eliciting half-maximal vasorelaxation) (converted)): 100 nM | brain content in FAAH−/− mice compared to wild-type littermates ([4]; mouse, in vivo): no significant difference | increase of brain content in FAAH−/− mice compared to wild-type littermates ([4]; mouse, in vivo, 20 min): 3 fold

CCCCCCCC/C=C\CCCCCCCC(=O)NCc1ccc(O)c(OC)c1 [olvanil, N-(4-hydroxy-3-methoxybenyl)-9Z-octadecenamide]
EC50 (TRPV1): 0.316 nM | times more potent than AM404 as TRPV1 activator (TRPV1): > 100 times and 110 times | times more potent than HPODA as TRPV1 activator (TRPV1): > 300 times | Brain Olvanil [4, 9]: 45 ± 5.6 pmol/g | brain content in FAAH−/− mice compared to FAAH+/+ littermates ([4]; mouse, in vivo): substantially reduced | times more potent than AM404 (human TRPV1): approximately 50 times

CN1[C@@H]2CC[C@H]1C[C@@H](OC(=O)c1c[nH]c3ccccc13)C2 [tropisetron, Tropisetron]
effect on antinociceptive effect of 4-aminophenol, rat paw pressure test (rats [2]; tropisetron 500 ng/rat intrathecal 5 min before 4-aminophenol 100 mg/kg i.p.): prevented

Source: article PMC3734263, “Fatty Acid Amide Hydrolase-Dependent Generation of Antinociceptive Drug Metabolites Acting on TRPV1 in the Brain” (PLoS ONE, 2013)
